“And” between values parts separate entries of the source, which are not always exact repeats. Equal entries are not always repeated.
System: Modified Vaccinia Virus, strain Ankara (MVA)
Type: cell-based
Conditions: reference inactivation (LVP-Method)

## C=O [0.7% (w/v) formaldehyde solution, formaldehyde]
  Reduction factor [lg] ± 95.0% confidence interval, 5 min: 1.70 lg and 1.87 lg and 1.53 lg
  Reduction factor [lg] ± 95.0% confidence interval, 15 min: 3.14 lg and 2.96 lg and 2.73 lg
  lg-TCID50/ml after 5 min: 4.93 lg-TCID50/ml and 4.88 lg-TCID50/ml and 4.85 lg-TCID50/ml
  lg-TCID50/ml after 15 min: 3.49 lg-TCID50/ml and 3.79 lg-TCID50/ml and 3.65 lg-TCID50/ml
